Results as given in US11414395B2, “Heterocyclic compounds as modulators of mGluR7” (PRAGMA Therapeutics, priority 2017, dated 2022).

Biological target: human mGluR7 (Homo sapiens (Human), UniProt Q14831)
Assay: Inositol monophosphate production assay (IP1 assay), inhibition of L-AP4 response
Assay type: cell-based
Details: mean IC50 from at least two independent experiments; HEK293 cells transiently transfected with mGluR7, Gqtop and EAAC1; IP1 production vs EC80 L-AP4
Text: Inositol Monophosphate Production Assay (IP1 Assay):
HEK293 cells were transiently transfected with mGluR7 by electroporation and seeded in a poly-ornithine coated 96-well plate at the density of 150 000 cells/well. To allow the monitoring of receptor activity through measurements of inositol monophosphate (IP1) production, mGluR7 was transfected with a chimeric Gq/Gi protein (Gqtop). and was also co-transfected with EAAC1, a glutamate transporter, to avoid influence of extracellular glutamate. Cells were cultured in Dulbecco's Modified Eagle Medium (DMEM, Invitrogen, Cergy Pontoise, France), supplemented with 10% of Fetal Bovine Serum (FBS). Medium was changed by Glutamax™ (Invitrogen, Cergy Pontoise, France) to reduce extracellular glutamate concentration 3 hours before stimulation
IP1 production was determined using the IP-One HTRF kit (CisBio Bioassays), a competitive immunoassay using cryptate-labeled anti-IP1 antibody and d2-labeled IP, according to the manufacturer's recommendations. All points were realized in triplicate.
Data were analyzed with Prism 6 software (GraphPadSoftware, San Diego, Calif.). Typically, in each experiment, a four-parameter concentration-response curve equation was used to fit data and potency (IC50) is estimated as logarithms (log IC50). Data were calculated as % of the control mGluR7 agonist L-AP4 response, defined as the response that is generated upon addition of an EC80-equivalent concentration of L-AP4.
The Table 2 below represents the mean IC50 obtained from at least two independent experiments.

Sequence of human mGluR7 (Q14831 35-915): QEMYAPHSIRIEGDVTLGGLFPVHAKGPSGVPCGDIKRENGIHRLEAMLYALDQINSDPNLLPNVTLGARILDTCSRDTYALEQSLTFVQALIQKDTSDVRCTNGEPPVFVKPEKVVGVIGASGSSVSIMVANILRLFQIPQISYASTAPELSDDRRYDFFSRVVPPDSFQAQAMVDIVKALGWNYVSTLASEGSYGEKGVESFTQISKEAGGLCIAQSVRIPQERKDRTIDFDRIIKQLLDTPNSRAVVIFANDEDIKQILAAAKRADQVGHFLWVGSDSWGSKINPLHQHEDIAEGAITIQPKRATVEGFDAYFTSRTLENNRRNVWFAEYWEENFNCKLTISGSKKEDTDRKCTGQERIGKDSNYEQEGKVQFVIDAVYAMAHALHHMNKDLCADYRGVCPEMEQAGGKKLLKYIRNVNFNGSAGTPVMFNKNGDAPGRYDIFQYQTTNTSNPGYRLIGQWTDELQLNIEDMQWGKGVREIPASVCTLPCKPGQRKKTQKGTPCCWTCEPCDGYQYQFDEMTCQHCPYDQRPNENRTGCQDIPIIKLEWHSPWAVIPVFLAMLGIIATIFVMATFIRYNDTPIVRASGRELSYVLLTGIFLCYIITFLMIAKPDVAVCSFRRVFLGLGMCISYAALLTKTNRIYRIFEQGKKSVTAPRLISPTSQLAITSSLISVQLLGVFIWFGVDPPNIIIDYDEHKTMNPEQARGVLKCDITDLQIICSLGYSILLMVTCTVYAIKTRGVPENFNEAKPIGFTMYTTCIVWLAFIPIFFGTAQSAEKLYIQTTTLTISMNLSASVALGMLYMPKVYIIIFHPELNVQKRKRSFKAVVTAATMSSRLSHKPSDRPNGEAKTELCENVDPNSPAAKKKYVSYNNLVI

| IC50 [nM] | Structure (SMILES) |
| --- | --- |
| < 500 | COc1cc(C2CCc3c(cnn(-c4ncccn4)c3=O)C2)c(C)cc1C (stereo not drawn) [Example 97, 6-(5-methoxy-2,4-dimethylphenyl)-2-(pyrimidin-2-yl)-5,6,7,8-tetrahydrophthalazin-1(2H)-one] |
| < 500 | Cc1ccc(C2CCc3c(cnn(-c4cc(F)ccn4)c3=O)C2)c(C)c1 (stereo not drawn) [Example 11, 6-(2,4-dimethylphenyl)-2-(4-fluoropyridin-2-yl)-5,6,7,8-tetrahydrophthalazin-1(2H)-one] |
| < 500 | COc1ccc(Cl)c(C2CCc3c(cnn(-c4ncccn4)c3=O)C2)c1 (stereo not drawn) [Example 75, 6-(2-chloro-5-methoxyphenyl)-2-(pyrimidin-2-yl)-5,6,7,8-tetrahydrophthalazin-1(2H)-one] |
| < 500 | Cc1ccc(C2CCc3c(cnn(-c4ncc(N5CCC5)cn4)c3=O)C2)c(C)c1 (stereo not drawn) [Example 116, 2-(5-(azetidin-1-yl)pyrimidin-2-yl)-6-(2,4-dimethylphenyl)-5,6,7,8-tetrahydrophthalazin-1(2H)-one] |
| 1000 to 30000 | COc1cccc(C2CCc3c(cnn(-c4ncc(N5CCCC5)cn4)c3=O)C2)c1C (stereo not drawn) [Example 111, 6-(3-methoxy-2-methylphenyl)-2-(5-(pyrrolidin-1-yl)pyrimidin-2-yl)-5,6,7,8-tetrahydrophthalazin-1(2H)-one] |
| < 500 | Cc1ccc(C2CCc3c(cnn(-c4cc(C#N)ccn4)c3=O)C2)c(C)c1 (stereo not drawn) [Example 23, 2-(6-(2,4-dimethylphenyl)-1-oxo-5,6,7,8-tetrahydrophthalazin-2(1H)-yl)isonicotinonitrile] |
| < 500 | Cc1c(C2CCc3c(cnn(-c4ncccn4)c3=O)C2)cccc1N(C)C (stereo not drawn) [Example 96, 6-(3-(dimethylamino)-2-methylphenyl)-2-(pyrimidin-2-yl)-5,6,7,8-tetrahydrophthalazin-1(2H)-one] |
| < 500 | COc1ccc(C)c(C2CCc3c(cnn(-c4ccccn4)c3=O)C2)c1 (stereo not drawn) [Example 61, 6-(5-methoxy-2-methylphenyl)-2-(pyridin-2-yl)-5,6,7,8-tetrahydrophthalazin-1(2H)-one] |
| 500 to 1000 | COc1cc(C)ccc1C1CCc2c(cnn(-c3ncccn3)c2=O)C1 (stereo not drawn) [Example 70, 6-(2-methoxy-4-methylphenyl)-2-(pyrimidin-2-yl)-5,6,7,8-tetrahydrophthalazin-1(2H)-one] |
| < 500 | Cc1ccc(C2CCc3c(cnn(-c4cccc(C#N)n4)c3=O)C2)c(C)c1 (stereo not drawn) [Example 21, 6-(6-(2,4-dimethylphenyl)-1-oxo-5,6,7,8-tetrahydrophthalazin-2(1H)-yl)picolinonitrile] |
| 500 to 1000 | Cc1cccc(C2CCc3c(cnn(-c4ncccn4)c3=O)C2)c1C (stereo not drawn) [Example 82, 6-(2,3-dimethylphenyl)-2-(pyrimidin-2-yl)-5,6,7,8-tetrahydrophthalazin-1(2H)-one] |
| 500 to 1000 | COc1c(C)cccc1C1CCc2c(cnn(-c3ncccn3)c2=O)C1 (stereo not drawn) [Example 71, 6-(2-methoxy-3-methylphenyl)-2-(pyrimidin-2-yl)-5,6,7,8-tetrahydrophthalazin-1(2H)-one] |
| < 500 | Cc1ccc(C2CCc3c(cnn(-c4ncccn4)c3=O)C2)c(Cl)c1 (stereo not drawn) [Example 95, 6-(2-chloro-4-methylphenyl)-2-(pyrimidin-2-yl)-5,6,7,8-tetrahydrophthalazin-1(2H)-one] |
| < 500 | Cc1cc(C)c(C2CCc3c(cnn(-c4ncccn4)c3=O)C2)c(C)c1 (stereo not drawn) [Example 89, 6-mesityl-2-(pyrimidin-2-yl)-5,6,7,8-tetrahydrophthalazin-1(2H)-one] |
| < 500 | Cc1ccnc(-n2ncc3c(c2=O)CCC(c2ccc(C)cc2C)C3)c1 (stereo not drawn) [Example 19, 6-(2,4-dimethylphenyl)-2-(4-methylpyridin-2-yl)-5,6,7,8-tetrahydrophthalazin-1(2H)-one] |
| < 500 | Cc1ccc(C2CCc3c(cnn(-c4cscn4)c3=O)C2)c(C)c1 (stereo not drawn) [Example 33, 6-(2,4-dimethylphenyl)-2-(thiazol-4-yl)-5,6,7,8-tetrahydrophthalazin-1(2H)-one] |
| < 500 | COCc1ccc(-n2ncc3c(c2=O)CCC(c2ccc(C)cc2C)C3)nc1 (stereo not drawn) [Example 27, 6-(2,4-dimethylphenyl)-2-(5-(methoxymethyl)pyridin-2-yl)-5,6,7,8-tetrahydrophthalazin-1(2H)-one] |
| < 500 | O=c1c2c(cnn1-c1ncccn1)CC(c1cccc(OC3CC3)c1Cl)CC2 (single isomer, unassigned; (-)) [Example 130, (−)-6-(2-chloro-3-cyclopropoxyphenyl)-2-(pyrimidin-2-yl)-5,6,7,8-tetrahydrophthalazin-1(2H)-one] |

| IC50 [nM] | Structure (SMILES) |
| --- | --- |
| < 500 | O=c1c2c(cnn1-c1ncccn1)CC(c1cccc(OC3CC3)c1)CC2 (stereo not drawn) [Example 85, 6-(3-cyclopropoxyphenyl)-2-(pyrimidin-2-yl)-5,6,7,8-tetrahydrophthalazin-1(2H)-one] |
| < 500 | Cc1ccc(C2CCc3c(cnn(-c4ccc(C#N)cn4)c3=O)C2)c(C)c1 (stereo not drawn) [Example 22, 6-(6-(2,4-dimethylphenyl)-1-oxo-5,6,7,8-tetrahydrophthalazin-2(1H)-yl)nicotinonitrile] |
| < 500 | CC(=O)Nc1cnc(-n2ncc3c(c2=O)CCC(c2ccc(C)cc2C)C3)nc1 (stereo not drawn) [Example 117, N-(2-(6-(2,4-dimethylphenyl)-1-oxo-5,6,7,8-tetrahydrophthalazin-2(1H)-yl)pyrimidin-5-yl)acetamide] |
| < 500 | COc1cccc(C2CCc3c(cnn(-c4ncc(O)cn4)c3=O)C2)c1C (stereo not drawn) [Example 45, 2-(5-hydroxypyrimidin-2-yl)-6-(3-methoxy-2-methylphenyl)-5,6,7,8-tetrahydrophthalazin-1(2H)-one] |
| < 500 | Cc1ccc(-n2ncc3c(c2=O)CCC(c2ccc(C)cc2C)C3)nc1 (stereo not drawn) [Example 18, 6-(2,4-dimethylphenyl)-2-(5-methylpyridin-2-yl)-5,6,7,8-tetrahydrophthalazin-1(2H)-one] |
| < 500 | Cc1c(OC2CC2)cccc1C1CCc2c(cnn(-c3ncc(Br)cn3)c2=O)C1 (stereo not drawn) [Example 126, 2-(5-bromopyrimidin-2-yl)-6-(3-cyclopropoxy-2-methylphenyl)-5,6,7,8-tetrahydrophthalazin-1(2H)-one] |
| < 500 | Cc1ccc(C2CCc3c(cnn(-c4ncc(N5CCOCC5)cn4)c3=O)C2)c(C)c1 (stereo not drawn) [Example 115, 6-(2,4-dimethylphenyl)-2-(5-morpholinopyrimidin-2-yl)-5,6,7,8-tetrahydrophthalazin-1(2H)-one] |
| < 500 | CN1CCc2c(C3CCc4c(cnn(-c5ncccn5)c4=O)C3)cccc21 (stereo not drawn) [Example 78, 6-(1-methylindolin-4-yl)-2-(pyrimidin-2-yl)-5,6,7,8-tetrahydrophthalazin-1(2H)-one] |
| < 500 | Cc1ccc(C2CCc3c(cnn(-c4ccc(N5CCOCC5)cn4)c3=O)C2)c(C)c1 (stereo not drawn) [Example 114, 6-(2,4-dimethylphenyl)-2-(5-morpholinopyridin-2-yl)-5,6,7,8-tetrahydrophthalazin-1(2H)-one] |
| < 500 | Cc1ccc(C2CCc3c(cnn(-c4ccccn4)c3=O)C2)c(C)c1 (stereo not drawn) [Example 1, 6-(2,4-dimethyl-phenyl)-2-pyridin-2-yl-5,6,7,8-tetrahydro-2H-phthalazin-1-one] |
| < 500 | Cc1ccc(C2CCc3c(cnn(-c4ncc(Cl)cn4)c3=O)C2)c(C)c1 (stereo not drawn) [Example 51, 2-(5-chloropyrimidin-2-yl)-6-(2,4-dimethylphenyl)-5,6,7,8-tetrahydrophthalazin-1(2H)-one] |
| < 500 | COc1ccnc(-n2ncc3c(c2=O)CCC(c2ccc(C)cc2C)C3)n1 (stereo not drawn) [Example 35, 6-(2,4-dimethylphenyl)-2-(4-methoxypyrimidin-2-yl)-5,6,7,8-tetrahydrophthalazin-1(2H)-one] |
| < 500 | COc1cccc(C2CCc3c(cnn(-c4ccc(CO)cn4)c3=O)C2)c1C (stereo not drawn) [Example 39, 2-(5-(hydroxymethyl)pyridin-2-yl)-6-(3-methoxy-2-methylphenyl)-5,6,7,8-tetrahydrophthalazin-1(2H)-one] |
| 1000 to 30000 | COc1cc(C2CCc3c(cnn(-c4ccccn4)c3=O)C2)ccc1C (stereo not drawn) [Example 64, 6-(3-methoxy-4-methylphenyl)-2-(pyridin-2-yl)-5,6,7,8-tetrahydrophthalazin-1(2H)-one] |
| < 500 | Cc1ccc(C2CCc3c(cnn(-c4ncc(C(F)(F)F)cn4)c3=O)C2)c(C)c1 (stereo not drawn) [Example 55, 6-(2,4-dimethylphenyl)-2-(5-(trifluoromethyl)pyrimidin-2-yl)-5,6,7,8-tetrahydrophthalazin-1(2H)-one] |
| 1000 to 30000 | CC(=O)c1ccc(C2CCc3c(cnn(-c4ncccn4)c3=O)C2)c(C)c1 (stereo not drawn) [Example 99, 6-(4-acetyl-2-methylphenyl)-2-(pyrimidin-2-yl)-5,6,7,8-tetrahydrophthalazin-1(2H)-one] |
| < 500 | COc1ccccc1C1CCc2c(cnn(-c3ccccn3)c2=O)C1 (stereo not drawn) [Example 58, 6-(2-methoxyphenyl)-2-(pyridin-2-yl)-5,6,7,8-tetrahydrophthalazin-1(2H)-one] |
| < 500 | COc1ccc(F)c(C2CCc3c(cnn(-c4ncccn4)c3=O)C2)c1 (stereo not drawn) [Example 74, 6-(2-fluoro-5-methoxyphenyl)-2-(pyrimidin-2-yl)-5,6,7,8-tetrahydrophthalazin-1(2H)-one] |
